Experimental data: patent US10590123B2, “Pesticidally active amide heterocyclic derivatives with sulphur containing substituents” (SYNGENTA PARTICIPATIONS AG, priority 2014, dated 2020)

Columns and labels:
Type in all cases: in vivo
[1] = system: Spodoptera littoralis (Egyptian Cotton Leaf Worm); assay: Example B1: Activity against Spodoptera littoralis, sprayed cotton leaf discs; settings: foliar, 72 h, application rate 200 ppm, L1 larvae, 3 days after infestation, read-out: control in at least one of the three categories (mortality, anti-feedancy or growth inhibition)
Experimental: Example B1: Activity Against Spodoptera littoralis (Egyptian Cotton Leaf Worm)
Cotton leaf discs were placed on agar in 24-well microtiter plates and sprayed with aqueous test solutions prepared from 10′000 ppm DMSO stock solutions. After drying the leaf discs were infested with five L1 larvae. The samples were assessed for mortality, anti-feedant effect, and growth inhibition in comparison to untreated samples 3 days after infestation. Control of Spodoptera littoralis by a test sample is when at least one of mortality, anti-feedant effect, and growth inhibition is higher than the untreated sample.

[2] = system: Euschistus heros (Neotropical Brown Stink Bug); assay: Example B7: Activity against Euschistus heros, sprayed soybean leaf; settings: 120 h, application rate 200 ppm, N-2 nymphs, 5 days after infestation
Experimental: Example B7: Activity Against Euschistus heros (Neotropical Brown Stink Bug)
Soybean leaf on agar in 24-well microtiter plates were sprayed with aqueous test solutions prepared from 10′000 ppm DMSO stock solutions. After drying the leaf were infested with N-2 nymphs. The samples were assessed for mortality 5 days after infestation.

[3] = system: Plutella xylostella (Diamond Back Moth); assay: Example B3: Activity against Plutella xylostella, artificial diet; settings: 120 h, application rate 200 ppm, L2 larvae, 5 days after infestation, read-out: effect in at least one of the two categories (mortality or growth inhibition)
Experimental: Example B3: Activity Against Plutella xylostella (Diamond Back Moth)
(§1) 24-well microtiter plates with artificial diet were treated with aqueous test solutions prepared from 10′000 ppm DMSO stock solutions by pipetting. After drying, the plates were infested with L2 larvae (10 to 15 per well). The samples were assessed for mortality and growth inhibition in comparison to untreated samples 5 days after infestation.

[4] = system: Diabrotica Balteata (Corn Root Worm); assay: Example B4: Activity against Diabrotica balteata, sprayed maize sprouts; settings: 96 h, application rate 200 ppm, L2 larvae, 4 days after infestation, read-out: effect in at least one of the two categories (mortality or growth inhibition)
Experimental: Example B4: Activity Against Diabrotica Balteata (Corn Root Worm)
as §1, with “Maize sprouts, placed on an agar layer in 24-well” for “24-well”, “plates” for “plates with artificial diet”, “spraying.” for “pipetting.”, “(6” for “(10”, “10” for “15”, “4” for “5”

[5] = system: Myzus persicae (Green Peach Aphid); assay: Example B8: Activity against Myzus persicae, sprayed sunflower leaf discs; settings: foliar, 144 h, application rate 200 ppm, aphid population of mixed ages, 6 days after infestation
Experimental: Example B8: Activity Against Myzus persicae (Green Peach Aphid)
Sunflower leaf discs were placed on agar in a 24-well microtiter plate and sprayed with aqueous test solutions prepared from 10′000 ppm DMSO stock solutions. After drying, the leaf discs were infested with an aphid population of mixed ages. The samples were assessed for mortality 6 days after infestation.

CCS(=O)(=O)c1cc(-n2ccc(C(F)(F)F)n2)cnc1C(=O)N(C)c1nnc(C(F)(F)F)s1 [Compound P17, 3-ethylsulfonyl-N-methyl-5-[3-(trifluoromethyl)pyrazol-1-yl]-N-[5-(trifluoromethyl)-1,3,4-thiadiazol-2-yl]pyridine-2-carboxamide]
≥ 80%: percent control (mortality, anti-feedant effect or growth inhibition) at 200 ppm [1] | mortality at 200 ppm [2] | percent effect (mortality or growth inhibition) at 200 ppm [3] | percent effect (mortality or growth inhibition) at 200 ppm [4]

CCS(=O)(=O)c1cc(-c2ccc(Cl)cc2)c[n+]([O-])c1C(=O)N(C)c1nnc(C(F)(F)F)s1 [Compound P19, 5-(4-chlorophenyl)-3-ethylsulfonyl-N-methyl-1-oxido-N-[5-(trifluoromethyl)-1,3,4-thiadiazol-2-yl]pyridin-1-ium-2-carboxamide]
≥ 80%: percent control (mortality, anti-feedant effect or growth inhibition) at 200 ppm [1] | mortality at 200 ppm [2] | percent effect (mortality or growth inhibition) at 200 ppm [3] | percent effect (mortality or growth inhibition) at 200 ppm [4]

CCSc1cc(-n2ccc(C(F)(F)F)n2)cnc1C(=O)N(C)c1nnc(C(F)(F)F)s1 [Compound P16, 3-ethylsulfanyl-N-methyl-5-[3-(trifluoromethyl)pyrazol-1-yl]-N-[5-(trifluoromethyl)-1,3,4-thiadiazol-2-yl]pyridine-2-carboxamide]
≥ 80%: percent control (mortality, anti-feedant effect or growth inhibition) at 200 ppm [1] | percent effect (mortality or growth inhibition) at 200 ppm [4]

CCS(=O)(=O)c1cc(-c2ccnc(Cl)c2)cnc1C(=O)N(C)c1nnc(C(F)(F)F)s1 [Compound P57]
≥ 80%: percent control (mortality, anti-feedant effect or growth inhibition) at 200 ppm [1] | mortality at 200 ppm [2] | mortality at 200 ppm [5] | percent effect (mortality or growth inhibition) at 200 ppm [3] | percent effect (mortality or growth inhibition) at 200 ppm [4]

CCS(=O)(=O)c1cc(-c2ccc(-c3ccc(Cl)cc3)cc2)cnc1C(=O)N(C)c1nnc(C(F)(F)F)s1 [Compound P9]
≥ 80%: percent control (mortality, anti-feedant effect or growth inhibition) at 200 ppm [1] | percent effect (mortality or growth inhibition) at 200 ppm [3] | percent effect (mortality or growth inhibition) at 200 ppm [4]

CCS(=O)(=O)c1cc(-c2ccc(C(F)(F)F)cc2)cnc1C(=O)Nc1nnc(C(F)(F)C(F)(F)F)s1 [Compound P10]
≥ 80%: percent effect (mortality or growth inhibition) at 200 ppm [4]

CCS(=O)(=O)c1cc(-c2cccc(C(F)(F)F)n2)cnc1C(=O)N(C)c1nnc(C(F)(F)F)s1 [Compound P45]
≥ 80%: percent control (mortality, anti-feedant effect or growth inhibition) at 200 ppm [1] | mortality at 200 ppm [5] | percent effect (mortality or growth inhibition) at 200 ppm [3] | percent effect (mortality or growth inhibition) at 200 ppm [4]

CCSc1cc(-c2ccc(Cl)cc2)cnc1C(=O)N(C)c1nnc(C(F)(F)F)s1 [Compound P1, 5-(4-chlorophenyl)-3-ethylsulfanyl-N-methyl-N-[5-(trifluoromethyl)-1,3,4-thiadiazol-2-yl]pyridine-2-carboxamide]
≥ 80%: percent control (mortality, anti-feedant effect or growth inhibition) at 200 ppm [1] | mortality at 200 ppm [2] | percent effect (mortality or growth inhibition) at 200 ppm [3] | percent effect (mortality or growth inhibition) at 200 ppm [4]

CCS(=O)(=O)c1cc(-n2ccc(C(F)(F)F)n2)cnc1C(=O)Nc1nnc(C(F)(F)C(F)(F)F)s1 [Compound P7]
≥ 80%: percent effect (mortality or growth inhibition) at 200 ppm [4]

CCS(=O)(=O)c1cc(-c2cccc(C#N)n2)cnc1C(=O)N(C)c1nnc(C(F)(F)F)s1 [Compound P50]
≥ 80%: percent control (mortality, anti-feedant effect or growth inhibition) at 200 ppm [1] | percent effect (mortality or growth inhibition) at 200 ppm [3] | percent effect (mortality or growth inhibition) at 200 ppm [4]

CCS(=O)(=O)c1ccc(-c2cnc(C(=O)N(C)c3nnc(C(F)(F)F)s3)c(S(=O)(=O)CC)c2)cc1 [Compound P3]
≥ 80%: percent control (mortality, anti-feedant effect or growth inhibition) at 200 ppm [1] | percent effect (mortality or growth inhibition) at 200 ppm [3] | percent effect (mortality or growth inhibition) at 200 ppm [4]

CCS(=O)(=O)c1cc(-c2ccc(Cl)c(Cl)n2)cnc1C(=O)N(C)c1nnc(C(F)(F)F)s1 [Compound P46]
≥ 80%: percent control (mortality, anti-feedant effect or growth inhibition) at 200 ppm [1] | percent effect (mortality or growth inhibition) at 200 ppm [3] | percent effect (mortality or growth inhibition) at 200 ppm [4]

CCS(=O)(=O)c1cc(-c2ccc(C(F)(F)F)cn2)cnc1C(=O)N(C)c1nnc(C(F)(F)F)s1 [Compound P53]
≥ 80%: percent control (mortality, anti-feedant effect or growth inhibition) at 200 ppm [1] | percent effect (mortality or growth inhibition) at 200 ppm [3] | percent effect (mortality or growth inhibition) at 200 ppm [4]

CCS(=O)(=O)c1cc(-c2ccc(Cl)cc2Cl)cnc1C(=O)N(C)c1nnc(C(F)(F)F)s1 [Compound P34]
≥ 80%: percent control (mortality, anti-feedant effect or growth inhibition) at 200 ppm [1] | mortality at 200 ppm [2] | percent effect (mortality or growth inhibition) at 200 ppm [3] | percent effect (mortality or growth inhibition) at 200 ppm [4]

CCS(=O)(=O)c1cc(-c2cccc(C#N)c2)cnc1C(=O)N(C)c1nnc(C(F)(F)F)s1 [Compound P23]
≥ 80%: percent control (mortality, anti-feedant effect or growth inhibition) at 200 ppm [1] | percent effect (mortality or growth inhibition) at 200 ppm [3] | percent effect (mortality or growth inhibition) at 200 ppm [4]

CCS(=O)(=O)c1cc(-c2ncc(C#N)cn2)cnc1C(=O)N(C)c1nnc(C(F)(F)F)s1 [Compound P63]
≥ 80%: percent control (mortality, anti-feedant effect or growth inhibition) at 200 ppm [1] | mortality at 200 ppm [2] | percent effect (mortality or growth inhibition) at 200 ppm [3] | percent effect (mortality or growth inhibition) at 200 ppm [4]

CCS(=O)(=O)c1cc(-c2ccc(C(F)(F)F)cc2)cnc1C(=O)N(C)c1nnc(C(F)(F)C(F)(F)F)s1 [Compound P11]
≥ 80%: percent control (mortality, anti-feedant effect or growth inhibition) at 200 ppm [1] | mortality at 200 ppm [2] | percent effect (mortality or growth inhibition) at 200 ppm [3] | percent effect (mortality or growth inhibition) at 200 ppm [4]

CCS(=O)(=O)c1cc(-n2ccc(C(F)(F)F)n2)cnc1C(=O)N(C)c1nnc(C(F)(F)C(F)(F)F)s1 [Compound P15]
≥ 80%: percent control (mortality, anti-feedant effect or growth inhibition) at 200 ppm [1] | mortality at 200 ppm [2] | percent effect (mortality or growth inhibition) at 200 ppm [3] | percent effect (mortality or growth inhibition) at 200 ppm [4]

CCS(=O)(=O)c1cc(-c2ccc(Cl)cc2)cnc1C(=O)Nc1nnc(C(F)(F)C(F)(F)F)s1 [Compound P13]
≥ 80%: percent effect (mortality or growth inhibition) at 200 ppm [3] | percent effect (mortality or growth inhibition) at 200 ppm [4]

CCS(=O)(=O)c1ccc(-c2ccc(C(F)(F)F)cc2)nc1C(=O)N(C)c1nnc(C(F)(F)F)s1 [Compound P21, 3-ethylsulfonyl-N-methyl-6-[4-(trifluoromethyl)phenyl]-N-[5-(trifluoromethyl)-1,3,4-thiadiazol-2-yl]pyridine-2-carboxamide]
≥ 80%: percent control (mortality, anti-feedant effect or growth inhibition) at 200 ppm [1] | percent effect (mortality or growth inhibition) at 200 ppm [3] | percent effect (mortality or growth inhibition) at 200 ppm [4]

CCS(=O)(=O)c1cc(-c2cc(Cl)c(F)c(Cl)c2)cnc1C(=O)N(C)c1nnc(C(F)(F)F)s1 [Compound P27]
≥ 80%: percent control (mortality, anti-feedant effect or growth inhibition) at 200 ppm [1] | percent effect (mortality or growth inhibition) at 200 ppm [3] | percent effect (mortality or growth inhibition) at 200 ppm [4]

CCS(=O)(=O)c1cc(C2(C#N)CC2)cnc1C(=O)N(C)c1nnc(C(F)(F)F)s1 [Compound P18]
≥ 80%: percent control (mortality, anti-feedant effect or growth inhibition) at 200 ppm [1] | mortality at 200 ppm [5] | percent effect (mortality or growth inhibition) at 200 ppm [3] | percent effect (mortality or growth inhibition) at 200 ppm [4]

CCS(=O)(=O)c1cc(-c2cncc(C(F)(F)F)c2)cnc1C(=O)N(C)c1nnc(C(F)(F)F)s1 [Compound P55]
≥ 80%: percent control (mortality, anti-feedant effect or growth inhibition) at 200 ppm [1] | percent effect (mortality or growth inhibition) at 200 ppm [4]

CCS(=O)(=O)c1cc(-c2cc(Cl)cc(Cl)c2)cnc1C(=O)N(C)c1nnc(C(F)(F)F)s1 [Compound P24]
≥ 80%: percent control (mortality, anti-feedant effect or growth inhibition) at 200 ppm [1] | percent effect (mortality or growth inhibition) at 200 ppm [3] | percent effect (mortality or growth inhibition) at 200 ppm [4]
